Measured values published in ChEMBL document CHEMBL3124787, “Discovery of novel bis-oxazolidinone compounds as potential potent and selective antitubercular agents” (Bioorg Med Chem Lett, 2014).
Values after ≈ are worked out from the molar mass of the structure shown.

Experiments:
[1] = Lipophilicity, log P of the compound by HPLC analysis; type: physicochemical
Staphylococcus aureus [2] = assay: Antibacterial activity against methicillin-resistant Staphylococcus aureus ATCC 33591 assessed as growth inhibition after 18 hrs by broth microdilution method; type: functional; conditions: ATCC 33591, 18 h
Escherichia coli = assay: Antibacterial activity against Escherichia coli ATCC 25922 assessed as growth inhibition after 18 hrs by broth microdilution method; type: functional; conditions: ATCC 25922, 18 h
Staphylococcus aureus [3] = assay: Antibacterial activity against methicillin-susceptible Staphylococcus aureus CMCC 26003 assessed as growth inhibition after 18 hrs by broth microdilution method; type: functional; conditions: CMCC 26003, 18 h
[4] = system: Mycolicibacterium smegmatis; assay: Antibacterial activity against Mycobacterium smegmatis assessed as growth inhibition after 18 hrs by broth microdilution method; type: functional
Staphylococcus aureus [5] = assay: Antibacterial activity against methicillin-resistant Staphylococcus aureus ATCC 43300 assessed as growth inhibition after 18 hrs by broth microdilution method; type: functional; conditions: ATCC 43300, 18 h
Pseudomonas aeruginosa = assay: Antibacterial activity against Pseudomonas aeruginosa ATCC 27853 assessed as growth inhibition after 18 hrs by broth microdilution method; type: functional; conditions: ATCC 27853, 18 h
Staphylococcus aureus [6] = assay: Antibacterial activity against methicillin-susceptible Staphylococcus aureus ATCC 25923 assessed as growth inhibition after 18 hrs by broth microdilution method; type: functional; conditions: ATCC 25923, 18 h
[7] = Aqueous solubility of the compound by HPLC analysis; type: physicochemical
Staphylococcus aureus [8] = assay: Antibacterial activity against methicillin-susceptible Staphylococcus aureus ATCC 29213 assessed as growth inhibition after 18 hrs by broth microdilution method; type: functional; conditions: ATCC 29213, 18 h
Staphylococcus aureus [9] = assay: Antibacterial activity against methicillin-susceptible Staphylococcus aureus ATCC 6538 assessed as growth inhibition after 18 hrs by broth microdilution method; type: functional; conditions: ATCC 6538, 18 h
[10] = system: Mycobacterium tuberculosis; assay: Antitubercular activity against Mycobacterium tuberculosis H37RV ATCC 27294 assessed as growth inhibition after 3 to 11 days by microdilution method; type: functional

Row | SMILES | logP [1] | MIC99 (Staphylococcus aureus [2]) [µg/mL] | MIC99 (Escherichia coli) [µg/mL] | MIC99 (Staphylococcus aureus [3]) [µg/mL] | MIC99 [4] [µg/mL] | MIC99 (Staphylococcus aureus [5]) [µg/mL] | MIC99 (Pseudomonas aeruginosa) [µg/mL] | MIC99 (Staphylococcus aureus [6]) [µg/mL] | solubility [7] [mM] | MIC99 (Staphylococcus aureus [8]) [µg/mL] | MIC99 (Staphylococcus aureus [9]) [µg/mL] | MIC [10] [µg/mL]
1 | CC(=O)NC[C@H]1CN(c2ccc(OC[C@@H](O)CNc3ccccn3)c(F)c2)C(=O)O1 | 1.37 | > 32 | > 32 | > 32 | > 64 | > 32 | > 32 | > 32 | 22.2 (≈ 9290 µg/mL) | > 32 | > 32 | –
2 | CC(=O)NC[C@H]1CN(c2ccc(OC[C@H](O)CNc3ccccn3)c(F)c2)C(=O)O1 | 1.6 | > 32 | > 32 | > 32 | > 64 | > 32 | > 32 | > 32 | 35.1 (≈ 14700 µg/mL) | > 32 | > 32 | –
3 | CC(=O)NC[C@H]1CN(c2ccc(OC[C@@H](O)CNc3cccnc3)c(F)c2)C(=O)O1 | 0.02 | > 32 | > 32 | > 32 | > 64 | > 32 | > 32 | > 32 | 3.04 (≈ 1270 µg/mL) | > 32 | > 32 | –
4 | CC(=O)NC[C@H]1CN(c2ccc(OC[C@H](O)CNc3cccnc3)c(F)c2)C(=O)O1 | -0.18 | 32 (≈ 76.5 µM) | > 32 | 32 (≈ 76.5 µM) | > 64 | 32 (≈ 76.5 µM) | > 32 | 32 (≈ 76.5 µM) | 10.1 (≈ 4240 µg/mL) | 32 (≈ 76.5 µM) | 32 (≈ 76.5 µM) | –
5 | CC(=O)NC[C@H]1CN(c2ccc(OC[C@@H](O)CNc3ccncc3)c(F)c2)C(=O)O1 | -0.04 | > 32 | > 32 | > 32 | > 64 | > 32 | > 32 | > 32 | 17.7 (≈ 7420 µg/mL) | > 32 | > 32 | –
6 | NNC(=O)c1ccncc1 [ISONIAZID] | – | – | – | – | 4 (≈ 29.2 µM) | – | – | – | – | – | – | 0.0625 (≈ 0.456 µM)
7 | CC(=O)NC[C@H]1CN(c2ccc(N3CCOCC3)c(F)c2)C(=O)O1 [LINEZOLID] | – | 2 (≈ 5.93 µM) | > 32 | 2 (≈ 5.93 µM) | – | 2 (≈ 5.93 µM) | > 32 | 2 (≈ 5.93 µM) | – | 2 (≈ 5.93 µM) | 1 (≈ 2.96 µM) | 0.25 (≈ 0.741 µM)
